Reference: publication PMC4965013, “Open Source Drug Discovery with the Malaria Box Compound Collection for Neglected Diseases and Beyond” (PLoS Pathogens, 2016)
Read-outs that look alike come from different tables or passages of the source.

Assays:
P. berghei ookinetes = assay: P. berghei Ookinete Development Assay (Pb ODA); assay type: cell-based; conditions: Plasmodium berghei
Description: Columns BX- CA, CD-DF: Delves, Ruecker, & Sinden group (Data and methods published in ref [82] except Column CE which is new data) The data represent our primary screening data in the P. falciparum Dual Gamete formation assay (Pf DGFA). They show the functional viability of mature Stage V male and female gametocytes as reported by their ability to undergo gamete formation as reported in the reference. Column CD represents primary screening data in the P. berghei Ookinete Development Assay (Pb ODA) at 1 µM as reported in the reference. Column CE represents a parallel screen in the Pb ODA at 10 µM that has not been published.

[1] = Kinetic Solubility at pH 7.4 (LC/CLND); assay type: physicochemical; conditions: pH 7.4, aqueous buffer, kinetic from dmso stock; read-out: Kinetic Solubility >20µM at pH 7.4
Protocol: Columns GD-GJ: Wuxi Inc. data for MMV (data presented first in this paper) PK/DMPK Parameters: Fasted animals (Male CD-1 mouse, 7-9 weeks age, 30±10 g, n=3) obtained from an approved vendor (SLAC Laboratory Animal Co. Ltd., Shanghai, China or Sino-British SIPPR/BK Laboratory Animal Co. Ltd Shanghai, China) were administered with a single oral dose (140 μmol/kg) using DMSO: 1% HPMC (5:95) as a vehicle. Blood sampling was performed via the submandibular or saphenous vein (t=0.083, 0.25, 1, 2, 4, 6 and 9 h) and transferred into microcentrifuge tubes containing Sodium Heparin (1,000 IU/ml) as anti-coagulant placed on wet ice until processed for plasma by centrifugation at approximately 4°C, 3000×g for 15 min. Plasma samples were stored in polypropylene tubes, quick frozen over dry ice and kept at -70±10°C until LC/MS/MS analysis. LC/MS/MS methods for the quantitative determination compounds plasma levels were developed with an internal standard. […] (Phoenix WinNonlin, version 6.2.1, Pharsight, Mountain View, CA) and expressed as Cmax & AUC0-last. […] AUC0-last is the area under the curve expressed as >12 h*μM (Yes or No). Plasma protein binding assay (PPB) (CD-1 mouse and human) expressed as <95% bound, >95% bound, or >99% bound. Kinetic Solubility at pH 7.4 was determined by liquid chromatography/chemiluminescence nitrogen detection (LC/CLND) and was scored as greater than 20µM (Yes or No). hERG inhibition was measured at 11µM by the QPatch- HT system and is expressed as “Yes” if greater than 45% inhibited at 11µM and “No” if less than or equal to 45% inhibited at 11µM. As part of the Drug-Drug Interaction studies (DDI issues), 5 human and 1 mouse CYP isoforms (1A2, 2C9, 2C19, 2D6, 3A4-M, 3A4-T) were tested for inhibition assay at 10 µM. […] Otherwise DDI issues were scored as “No”. Positive and negative controls were run for each assay (Table 1).

Chromera velia = Chromera velia flagellation motility assay; conditions: 1µM
[2] = test system: HIV-1 JR-FL or HIV-1 NL4-3 viruses; assay: HIV-1 viral production p24 ELISA; assay type: cell-based
Protocol: Columns FK-GB, Moore group (data presented first in this paper). HIV and HIV-producing cell lines, toxicity and viral suppression. […] MMV compounds were incubated with HIV-1 JR-FL or HIV-1 NL4-3 pseudoviruses and U87-CD4-CCR5 or U87-CD4-CXCR4 cells (obtained through the NIH AIDS Reagent Program, Division of AIDS, NIAID, NIH: U87 CD4+CCR5+ Cells from Dr. HongKui Deng and Dr. Dan R. Littman) respectively for 3 days. Cells were assayed for infection by luciferase production (Bright-Glo Luciferase Substrate, Promega) and cell viability by MTT assay. […] MMV compounds were next incubated with HIV-1 JR-FL or HIV-1 NL4-3 viruses and U87-CD4-CCR5 or U87-CD4-CXCR4 cells respectively for 7 days. Cell supernatants were assayed for viral production by p24 ELISA [153] and cell viability by MTT assay. […] DMSO (5%) was completely toxic to all cells (based on visual inspection) and served as the positive control for MTT assays.

[3] = test system: P. falciparum NF54 gametocytes stage I-V; design: method as in ref [58, 65] (a number printed in a supplementary file, which may have a reference list of its own: not looked up in the article's list); conditions: 12.5µM; ref [58, 65]; cited from earlier work
T. b. brucei Squib 427 = conditions: ref [84]; read-out: Trypansoma brucei brucei Squib 427 IC50; cited from earlier work
Haemonchus contortus = Haemonchus contortus Scynexis; assay type: cell-based; conditions: 10µM
[4] = test system: P. falciparum NF54Pfs16 gametocytes stage IV-V; conditions: 5µM; ref [62]; cited from earlier work
[5] = test system: P. falciparum Stage V male and female gametocytes; design: method as in ref [74] (a number printed in a supplementary file, which may have a reference list of its own: not looked up in the article's list); conditions: 1µM; ref [74]; cited from earlier work
Aedes aegypti = Aedes aegypti Scynexis; conditions: 10µM
Protocol: Supplement ppat.1005763.s002.xlsx, sheet "S1 Table Heat Map" | column: Aedes aegypti % dead 48hr 10 µM Synexis

[6] = Human immunodeficiency virus 1, NL43, read-out: HIV R5 % inhibition rep3 in U87 (P24 NO Washout)
[7] = Human immunodeficiency virus 1, NL43, read-out: HIV R5 % inhibition rep3 in U87 (P24 Washout)
[8] = Human immunodeficiency virus 1, NL43, read-out: HIV X4 % inhibition rep3 in U87 (P24 NO Washout)
[9] = Human immunodeficiency virus 1, NL43, read-out: HIV X4 %inhibition rep3 in U87 (P24 Washout)

## CCOC(=O)c1cnc2ccc(OC)cc2c1NCc1ccccc1 [MMV665813]
P. berghei ookinetes
  inhibition at 10 µM: 33.4%
[1]
  solubility kinetic: < 20 µM
Chromera velia
  Chromera velia 24 hr Flagellation (control standardized to ++; 0 = no flagella): +++
  Chromera velia 72 hr Flagellation (control standardized to ++; 0 = no flagella): ++
[2]; [6]
  inhibition at 5 µM: -50%
[2]; [7]
  inhibition at 5 µM: -13%
[2]; [8]
  inhibition at 5 µM: 20%
[2]; [9]
  inhibition at 5 µM: 16%
[3]
  gametocyte Stage I % inhibition: 68%
  gametocyte Stage II % inhibition: 46%
  gametocyte Stage III % inhibition: -0.559%
  gametocyte Stage IV % inhibition: 15%
  gametocyte Stage V % inhibition: 12%
T. b. brucei Squib 427
  IC50: 14.9 µM
Haemonchus contortus
  Haemonchus contortus 96hr % dead: 1%
[4]
  gametocyte late stage (IV-V) luciferase % inhibition: 5.69%
[5]
  Male gametocyte Stage V % inhibition of gamete formation: -13%
  female gametocyte Stage V % inhibition of gamete formation: -41%
Aedes aegypti
  Aedes aegypti % dead 48hr: -2%

## CCN1CCN(c2cc(C)c3cc(NC(=O)c4ccc(OC)c(OC)c4)ccc3n2)CC1 [MMV019074]
P. berghei ookinetes
  inhibition at 10 µM: 43%
[1]
  solubility kinetic: < 20 µM
Chromera velia
  Chromera velia 24 hr Flagellation (control standardized to ++; 0 = no flagella): +++
  Chromera velia 72 hr Flagellation (control standardized to ++; 0 = no flagella): +++
[2]; [7]
  inhibition at 5 µM: 7%
[2]; [8]
  inhibition at 5 µM: 14%
[2]; [9]
  inhibition at 5 µM: 6.64%
[3]
  gametocyte Stage I % inhibition: 66%
  gametocyte Stage II % inhibition: 32%
  gametocyte Stage III % inhibition: -6%
  gametocyte Stage IV % inhibition: 16%
  gametocyte Stage V % inhibition: 9%
T. b. brucei Squib 427
  IC50: 4.78 µM
Haemonchus contortus
  Haemonchus contortus 96hr % dead: 31%
[4]
  gametocyte late stage (IV-V) luciferase % inhibition: -9%
[5]
  Male gametocyte Stage V % inhibition of gamete formation: -3.72%
  female gametocyte Stage V % inhibition of gamete formation: -9%
Aedes aegypti
  Aedes aegypti % dead 48hr: -20%

## CCN(CC)c1cc(C)c2cc(NC(=O)c3cccc(OC)c3)ccc2n1 [MMV000498]
P. berghei ookinetes
  inhibition at 10 µM: -0.6%
[1]
  solubility kinetic: < 20 µM
Chromera velia
  Chromera velia 24 hr Flagellation (control standardized to ++; 0 = no flagella): ++
  Chromera velia 72 hr Flagellation (control standardized to ++; 0 = no flagella): +++
[2]; [7]
  inhibition at 5 µM: -9%
[2]; [8]
  inhibition at 5 µM: -118%
[2]; [9]
  inhibition at 5 µM: -40%
[3]
  gametocyte Stage I % inhibition: 84%
  gametocyte Stage II % inhibition: 43%
  gametocyte Stage III % inhibition: 12%
  gametocyte Stage IV % inhibition: 1.56%
  gametocyte Stage V % inhibition: -1.9%
T. b. brucei Squib 427
  IC50: 14.3 µM
Haemonchus contortus
  Haemonchus contortus 96hr % dead: 100%
[4]
  gametocyte late stage (IV-V) luciferase % inhibition: -3.24%
[5]
  Male gametocyte Stage V % inhibition of gamete formation: -1.33%
  female gametocyte Stage V % inhibition of gamete formation: -22%
Aedes aegypti
  Aedes aegypti % dead 48hr: 19%

## COc1ccc(C(=O)Nc2ccc3nc(N4CCCCC4)cc(C)c3c2)cc1OC [MMV019758]
P. berghei ookinetes
  inhibition at 10 µM: 35.4%
[1]
  solubility kinetic: < 20 µM
Chromera velia
  Chromera velia 24 hr Flagellation (control standardized to ++; 0 = no flagella): +
  Chromera velia 72 hr Flagellation (control standardized to ++; 0 = no flagella): ++
[2]; [6]
  inhibition at 5 µM: 31%
[2]; [7]
  inhibition at 5 µM: 83%
[2]; [8]
  inhibition at 5 µM: 68%
[2]; [9]
  inhibition at 5 µM: 24%
[3]
  gametocyte Stage I % inhibition: 72%
  gametocyte Stage II % inhibition: 41%
  gametocyte Stage III % inhibition: 3.44%
  gametocyte Stage IV % inhibition: 8%
  gametocyte Stage V % inhibition: 0.3%
T. b. brucei Squib 427
  IC50: 16.2 µM
Haemonchus contortus
  Haemonchus contortus 96hr % dead: 75%
[5]
  Male gametocyte Stage V % inhibition of gamete formation: 10%
  female gametocyte Stage V % inhibition of gamete formation: -48%
Aedes aegypti
  Aedes aegypti % dead 48hr: 6%

## COc1cc2cc(C(=O)Nc3ccccc3)c(N)nc2cc1OC [MMV006767]
P. berghei ookinetes
  inhibition at 10 µM: 39.4%
[1]
  solubility kinetic: > 20 µM
Chromera velia
  Chromera velia 24 hr Flagellation (control standardized to ++; 0 = no flagella): +++
  Chromera velia 72 hr Flagellation (control standardized to ++; 0 = no flagella): ++
[2]; [6]
  inhibition at 5 µM: 103%
[2]; [7]
  inhibition at 5 µM: 9%
[2]; [8]
  inhibition at 5 µM: 104%
[2]; [9]
  inhibition at 5 µM: 56%
[3]
  gametocyte Stage I % inhibition: 96%
  gametocyte Stage II % inhibition: 56%
  gametocyte Stage III % inhibition: 26%
  gametocyte Stage IV % inhibition: 12%
  gametocyte Stage V % inhibition: 23%
Haemonchus contortus
  Haemonchus contortus 96hr % dead: 57%
[4]
  gametocyte late stage (IV-V) luciferase % inhibition: 2%
[5]
  Male gametocyte Stage V % inhibition of gamete formation: 22%
  female gametocyte Stage V % inhibition of gamete formation: -10%
Aedes aegypti
  Aedes aegypti % dead 48hr: -3%
